Measured values from US11325900B2, “5-(pyrimidin-4-yl)thiazol-2-yl urea derivatives as therapeutic agents” (AUCENTRA HOLDINGS PTY LTD, priority 2018, dated 2022).

Columns and labels:
CDK8/CycC = target: T1, CDK8/CycC (Homo sapiens, UniProt P49336); test: Radiometric protein kinase assay (33PanQinase Activity Assay, ProQinase); format: biochemical; conditions: 1.0 μM ATP, 1.0 μg/50 μL substrate RBER-IRStide, duplicate measurements, read-out: CDK8 Kinase inhibition IC50
T1 construct: purchased ProQinase GmbH, Freiburg, Germany
T1 sequence (P49336 whole entry): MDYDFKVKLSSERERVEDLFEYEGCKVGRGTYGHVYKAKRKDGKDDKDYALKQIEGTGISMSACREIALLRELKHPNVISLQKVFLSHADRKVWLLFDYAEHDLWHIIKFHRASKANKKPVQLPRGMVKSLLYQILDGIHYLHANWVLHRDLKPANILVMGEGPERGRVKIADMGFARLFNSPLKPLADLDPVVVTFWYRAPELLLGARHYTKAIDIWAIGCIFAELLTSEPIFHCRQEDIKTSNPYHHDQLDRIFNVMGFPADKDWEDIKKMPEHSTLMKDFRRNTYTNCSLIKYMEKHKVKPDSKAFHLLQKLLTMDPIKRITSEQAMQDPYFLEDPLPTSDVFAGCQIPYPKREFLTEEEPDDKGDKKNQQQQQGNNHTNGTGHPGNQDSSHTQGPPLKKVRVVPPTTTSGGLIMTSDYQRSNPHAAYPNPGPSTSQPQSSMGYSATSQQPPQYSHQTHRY
T1 sequence (P24863 whole entry partner): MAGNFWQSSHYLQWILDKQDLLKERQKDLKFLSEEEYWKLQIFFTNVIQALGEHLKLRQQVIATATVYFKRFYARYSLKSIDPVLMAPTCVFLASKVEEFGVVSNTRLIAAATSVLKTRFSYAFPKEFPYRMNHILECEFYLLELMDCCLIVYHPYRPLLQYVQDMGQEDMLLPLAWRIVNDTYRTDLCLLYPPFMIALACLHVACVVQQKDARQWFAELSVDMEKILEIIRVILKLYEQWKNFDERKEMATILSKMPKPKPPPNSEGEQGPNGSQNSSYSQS
Description: The kinase activity of CDK8/CycC was measured using a radiometric protein kinase assay (33PanQinase® Activity Assay) by ProQinase GmbH, Freiburg, Germany, with the protocols shown at www.proqinase.com/sites/default/files/public/uploads/WildtypeProfiler/radiometric_assay_v05_2012_manual.pdf. IC50 determination (8.3 nM with 1.0 μM ATP and 1.0 μg/50 μL of substrate RBER-IRStide) was performed as duplicate measurements and calculated using Quattro Workflow V3.1.1 (Quattro Research GmbH, Germany). Apparent inhibition constants (Ki) values were calculated from Km (ATP) and IC50 values for the respective kinases.

MV-4-11 = test: Cell viability assay (resazurin, leukemia cell lines), 72 h growth inhibition; format: cell-based; conditions: Homo sapiens, MV4-11, MV-4-11 cells
Text: (§1) Compounds from Example 1 may be subjected to a standard MTT (3-(4,5-dimethylthiazol-2-yl)-2,5-diphenyltetrazolium bromide) and resazurin assays on solid tumour cell lines and leukemia cell lines, respectively, as previously reported (Wang S et al., J Med Chem 47:1662-1675, 2004 and Diab S e al. CheMedChem 9:962-972, 2014). Compound concentrations required to inhibit 50% of cell growth (GI50) can be calculated using non-linear regression analysis.

HCT-116 = test: Cell viability assay (MTT, solid tumour cell lines), 72 h growth inhibition; format: cell-based; conditions: Homo sapiens, HCT-116 cells
Text: as §1

mouse model of AML = conditions: background; cited from earlier work
[1] = test system: acute myeloid leukaemia (AML) cell lines; conditions: background; cited from earlier work

CNc1nccc(-c2sc(NC(=O)Nc3cccc(Cl)c3)nc2C)n1 [Compound 11, 1-(3-Chlorophenyl)-3-(4-methyl-5-(2-(methylamino)pyrimidin-4-yl)thiazol-2-yl)urea]
IC50 (CDK8/CycC): 33 nM
GI50 (MV-4-11): 1480 ± 1320 nM
GI50 (HCT-116): 693 ± 30 nM

CNc1nccc(-c2sc(NC(=O)Nc3cccc(Br)c3)nc2C)n1 [Compound 12, 1-(3-Bromophenyl)-3-(4-methyl-5-(2-(methylamino)pyrimidin-4-yl)thiazol-2-yl)urea]
IC50 (CDK8/CycC): 7 nM
GI50 (MV-4-11): 2110 ± 1640 nM
GI50 (HCT-116): 6400 ± 270 nM

CNc1nccc(-c2sc(NC(=O)Nc3cccc(C)c3)nc2C)n1 [Compound 13, 1-(4-Methyl-5-(2-(methylamino)pyrimidin-4-yl)thiazol-2-yl)-3-(m-tolyl)urea]
IC50 (CDK8/CycC): 6 nM
GI50 (MV-4-11): 3900 ± 1100 nM
GI50 (HCT-116): 2770 ± 210 nM

CNc1nccc(-c2sc(NC(=O)Nc3cccc([N+](=O)[O-])c3)nc2C)n1 [Compound 14, 1-(4-Methyl-5-(2-(methylamino)pyrimidin-4-yl)thiazol-2-yl)-3-(3-nitrophenyl)urea]
IC50 (CDK8/CycC): 10 nM
GI50 (MV-4-11): 585 ± 30 nM
GI50 (HCT-116): 5080 ± 820 nM

CNc1nccc(-c2sc(NC(=O)Nc3cccc(C#N)c3)nc2C)n1 [Compound 15, 1-(3-Cyanophenyl)-3-(4-methyl-5-(2-(methylamino)pyrimidin-4-yl)thiazol-2-yl)urea]
IC50 (CDK8/CycC): 8 nM
GI50 (MV-4-11): 565 ± 40 nM
GI50 (HCT-116): 6250 ± 610 nM

CNc1nccc(-c2sc(NC(=O)Nc3cccc(C(C)C)c3)nc2C)n1 [Compound 17, 1-(3-Isopropylphenyl)-3-(4-methyl-5-(2-(methylamino)pyrimidin-4-yl)thiazol-2-yl)urea]
IC50 (CDK8/CycC): 15 nM
GI50 (MV-4-11): 3510 ± 790 nM
GI50 (HCT-116): 5970 ± 723 nM

CNc1nccc(-c2sc(NC(=O)Nc3cccc(OC(F)(F)F)c3)nc2C)n1 [Compound 18, 1-(4-Methyl-5-(2-(methylamino)-pyrimidin-4-yl)thiazol-2-yl)-3-(3-(trifluoromethoxy)phenyl)urea]
IC50 (CDK8/CycC): 25 nM
GI50 (MV-4-11): 5000 ± 630 nM
GI50 (HCT-116): 4290 ± 523 nM

CNc1nccc(-c2sc(NC(=O)Nc3cccc(OC(F)F)c3)nc2C)n1 [Compound 20, 1-(3-(Difluoromethoxy)phenyl)-3-(4-methyl-5-(2-(methylamino)-pyrimidin-4-yl)thiazol-2-yl)urea]
IC50 (CDK8/CycC): 6 nM
GI50 (MV-4-11): 939 ± 60 nM
GI50 (HCT-116): 4530 ± 980 nM

CNc1nccc(-c2sc(NC(=O)Nc3cccc(SC)c3)nc2C)n1 [Compound 21, 1-(4-Methyl-5-(2-(methylamino)-pyrimidin-4-yl)thiazol-2-yl)-3-(3-(methylthio)phenyl)urea]
IC50 (CDK8/CycC): 9 nM
GI50 (MV-4-11): 3350 ± 190 nM
GI50 (HCT-116): 6130 ± 910 nM

CNc1nccc(-c2sc(NC(=O)Nc3cccc(SC(F)(F)F)c3)nc2C)n1 [Compound 22, 1-(4-Methyl-5-(2-(methylamino)-pyrimidin-4-yl)thiazol-2-yl)-3-(3-((trifluoromethyl)thio)phenyl)urea]
IC50 (CDK8/CycC): 20 nM
GI50 (MV-4-11): 4630 ± 1560 nM
GI50 (HCT-116): 4310 ± 750 nM

CNc1nccc(-c2sc(NC(=O)Nc3cccc(S(=O)(=O)C(F)(F)F)c3)nc2C)n1 [Compound 23, 1-(4-Methyl-5-(2-(methylamino)pyrimidin-4-yl)-thiazol-2-yl)-3-(3-((trifluoromethyl)-sulfonyl)phenyl)urea]
IC50 (CDK8/CycC): 26 nM
GI50 (MV-4-11): 3170 ± 530 nM
GI50 (HCT-116): 4960 ± 120 nM

CNc1nccc(-c2sc(NC(=O)Nc3ccc(Cl)c(C(F)(F)F)c3)nc2C)n1 [Compound 24, 1-(4-Chloro-3-(trifluoromethyl)-phenyl)-3-(4-methyl-5-(2-(methylamino)-pyrimidin-4-yl)thiazol-2-yl)urea]
IC50 (CDK8/CycC): 12 nM
GI50 (MV-4-11): 3480 ± 9530 nM
GI50 (HCT-116): 7250 ± 310 nM

CNc1nccc(-c2sc(NC(=O)Nc3ccc(F)c(C(F)(F)F)c3)nc2C)n1 [Compound 25, 1-(4-Fluoro-3-(trifluoromethyl)phenyl)-3-(4-methyl-5-(2-(methylamino)-pyrimidin-4-yl)thiazol-2-yl)urea]
IC50 (CDK8/CycC): 13 nM
GI50 (MV-4-11): 2230 ± 140 nM
GI50 (HCT-116): 5850 ± 1140 nM

CNc1nccc(-c2sc(NC(=O)Nc3ccc(C)c(C(F)(F)F)c3)nc2C)n1 [Compound 26, 1-(4-Methyl-3-(trifluoromethyl)-phenyl)-3-(4-methyl-5-(2-(methylamino)pyrimidin-4-yl)thiazol-2-yl)urea]
IC50 (CDK8/CycC): 15 nM
GI50 (MV-4-11): 2560 ± 490 nM
GI50 (HCT-116): 5100 ± 660 nM

CNc1nccc(-c2sc(NC(=O)Nc3ccc(C(F)(F)F)c(C(F)(F)F)c3)nc2C)n1 [Compound 27, 1-(3,4-Bis(trifluoromethyl)phenyl)-3-(4-methyl-5-(2-(methylamino)-pyrimidin-4-yl)thiazol-2-yl)urea]
IC50 (CDK8/CycC): 53 nM
GI50 (MV-4-11): 4160 ± 800 nM
GI50 (HCT-116): 5640 ± 320 nM

CNc1nccc(-c2sc(NC(=O)Nc3ccc(C(F)(F)F)c(F)c3)nc2C)n1 [Compound 28, 1-(3-Fluoro-4-(trifluoromethyl)phenyl)-3-(4-methyl-5-(2-(methylamino)-pyrimidin-4-yl)thiazol-2-yl)urea]
IC50 (CDK8/CycC): 26 nM
GI50 (MV-4-11): 3280 ± 640 nM
GI50 (HCT-116): 772 ± 250 nM

CNc1nccc(-c2sc(NC(=O)Nc3ccc(C)c(Cl)c3)nc2C)n1 [Compound 29, 1-(3-Chloro-4-methylphenyl)-3-(4-methyl-5-(2-(methylamino)-pyrimidin-4-yl)thiazol-2-yl)urea]
IC50 (CDK8/CycC): 13 nM
GI50 (MV-4-11): 2160 ± 1170 nM
GI50 (HCT-116): 7770 ± 430 nM

CNc1nccc(-c2sc(NC(=O)Nc3ccc(Cl)c(C)c3)nc2C)n1 [Compound 30, 1-(4-Chloro-3-methylphenyl)-3-(4-methyl-5-(2-(methylamino)-pyrimidin-4-yl)thiazol-2-yl)urea]
IC50 (CDK8/CycC): 8 nM
GI50 (MV-4-11): 4390 ± 1020 nM
GI50 (HCT-116): 2350 ± 3210 nM

CNc1nccc(-c2sc(NC(=O)Nc3ccc(CN4CCOCC4)c(Cl)c3)nc2C)n1 [Compound 31, 1-(3-Chloro-4-(morpholinomethyl)phenyl)-3-(4-methyl-5-(2-(methylamino)-pyrimidin-4-yl)thiazol-2-yl)urea]
IC50 (CDK8/CycC): 22 nM
GI50 (MV-4-11): 945 ± 50 nM
GI50 (HCT-116): 6830 ± 1010 nM

CNc1nccc(-c2sc(NC(=O)Nc3ccc(CN4CCN(C)CC4)c(C(F)(F)F)c3)nc2C)n1 [Compound 32, 1-(4-Methyl-5-(2-(methylamino)-pyrimidin-4-yl)thiazol-2-yl)-3-(4-((4-methylpiperazin-1-yl)methyl)-3-(trifluoromethyl)phenyl)urea]
IC50 (CDK8/CycC): 12 nM
GI50 (MV-4-11): < 1 nM
GI50 (HCT-116): 366 ± 90 nM

CCN1CCN(Cc2ccc(NC(=O)Nc3nc(C)c(-c4ccnc(NC)n4)s3)cc2C(F)(F)F)CC1 [Compound 33, 1-(4-((4-Ethylpiperazin-1-yl)methyl)-3-(trifluoromethyl)phenyl)-3-(4-methyl-5-(2-(methylamino)-pyrimidin-4-yl)thiazol-2-yl)urea]
IC50 (CDK8/CycC): 10 nM
GI50 (MV-4-11): < 1 nM
GI50 (HCT-116): 457 ± 30 nM

CNc1nccc(-c2sc(NC(=O)Nc3ccc(CN4CCOCC4)c(C(F)(F)F)c3)nc2C)n1 [Compound 37, 1-(4-Methyl-5-(2-(methylamino)-pyrimidin-4-yl)thiazol-2-yl)-3-(4-(morpholinomethyl)-3-(trifluoromethyl)phenyl)urea]
IC50 (CDK8/CycC): 9 nM
GI50 (MV-4-11): 68 ± 30 nM
GI50 (HCT-116): 7840 ± 390 nM

CNc1nccc(-c2sc(NC(=O)Nc3ccc(Cl)cc3)nc2C)n1 [Compound 43]
IC50 (CDK8/CycC): 9 nM
GI50 (MV-4-11): 1520 ± 800 nM
GI50 (HCT-116): 5960 ± 440 nM

CNc1nccc(-c2sc(NC(=O)Nc3ccc(C)cc3)nc2C)n1 [Compound 44, 1-(4-Methyl-5-(2-(methylamino)pyrimidin-4-yl)thiazol-2-yl)-3-(p-tolyl)urea]
IC50 (CDK8/CycC): 7 nM
GI50 (MV-4-11): 2600 ± 460 nM
GI50 (HCT-116): 2370 ± 50 nM

CNc1nccc(-c2sc(NC(=O)Nc3ccc(OC)cc3)nc2C)n1 [Compound 45, 1-(4-Methoxyphenyl)-3-(4-methyl-5-(2-(methylamino)pyrimidin-4-yl)thiazol-2-yl)urea]
IC50 (CDK8/CycC): 11 nM
GI50 (MV-4-11): 756 ± 120 nM
GI50 (HCT-116): 3040 ± 530 nM

Cc1nc(NC(=O)Nc2cccc(C(F)(F)F)c2)sc1-c1ccnc(N(C)C)n1 [Compound 46, 1-(5-(2-(Dimethylamino)pyrimidin-4-yl)-4-methylthiazol-2-yl)-3-(3-(trifluoromethyl)phenyl)urea]
IC50 (CDK8/CycC): 41 nM
GI50 (MV-4-11): 5500 ± 490 nM
GI50 (HCT-116): 35000 ± 11800 nM

Cc1nc(NC(=O)Nc2cccc(Cl)c2)sc1-c1ccnc(N(C)C)n1 [Compound 47, 1-(3-Chlorophenyl)-3-(5-(2-(dimethylamino)pyrimidin-4-yl)-4-methylthiazol-2-yl)urea]
IC50 (CDK8/CycC): 38 nM
GI50 (MV-4-11): 5280 ± 150 nM
GI50 (HCT-116): 5770 ± 420 nM

Cc1ccc(NC(=O)Nc2nc(C)c(-c3ccnc(N(C)C)n3)s2)cc1Cl [Compound 48, 1-(3-Chloro-4-methylphenyl)-3-(5-(2-(dimethylamino)pyrimidin-4-yl)-4-methylthiazol-2-yl)urea]
IC50 (CDK8/CycC): 46 nM
GI50 (MV-4-11): 5910 ± 180 nM
GI50 (HCT-116): 8340 ± 600 nM

Cc1nc(NC(=O)Nc2cccc(C(F)(F)F)c2)sc1-c1ccnc(N)n1 [Compound 51, 1-(5-(2-Aminopyrimidin-4-yl)-4-methylthiazol-2-yl)-3-(3-(trifluoromethyl)phenyl)urea]
IC50 (CDK8/CycC): 60 nM
GI50 (MV-4-11): 5710 ± 590 nM
GI50 (HCT-116): 4320 ± 410 nM

cortistatin A
Anticancer activity (in words) (mouse model of AML): shows anticancer activity
Suppression of cell growth (in words) [1]: suppress cell growth
